The values that follow come from US20200102295A1, “NITROCATECHOL DERIVATIVES AS COMT INHIBITORS” (BIAL - PORTELA & CA, S.A., priority 2005, published 2020).

Several values for one entry are separate records, joined by “and”; a condition that tells them apart may be missing. Equal values may be shown once.

For data set [1], the system named is Neuro 2A mouse neuroblastoma cells. Nature of the data set: Cell toxicity: Neuro 2A cell viability (calcein-AM). Type of data set: cell-based. To be noted: Neuro 2A cells, 30 μM, 24 h exposure.
The next data set has as its target T1, mouse liver COMT (Mus musculus, UniProt O88587).
T1 construct: Aliquots of 0.5 ml of liver homogenates were preincubated; from tissue; host or cells: mouse liver homogenate (NMRI mice, dosed orally; ex vivo activity)
T1 sequence (O88587 1-265): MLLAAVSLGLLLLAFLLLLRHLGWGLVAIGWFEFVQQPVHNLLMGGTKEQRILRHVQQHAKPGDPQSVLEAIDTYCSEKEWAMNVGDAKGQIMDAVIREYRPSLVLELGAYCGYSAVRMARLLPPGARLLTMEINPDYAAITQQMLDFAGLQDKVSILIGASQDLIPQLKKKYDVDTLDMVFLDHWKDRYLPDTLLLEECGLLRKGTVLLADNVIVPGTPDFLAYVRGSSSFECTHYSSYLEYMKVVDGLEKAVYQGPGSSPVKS
Nature of the data set: Mouse liver COMT activity after oral administration of test compounds. Type of data set: in vivo. Particulars: 3 mg/kg oral, 3 h after administration.

Turning to `Cc1noc(-c2cc(O)c(O)c([N+](=O)[O-])c2)n1` [Compound 1, 5-(3-methyl-1,2,4-oxadiazol-5-yl)-3-nitropyrocatechol, reference compound], in data set [1], the “% of viable cells” value was 55% and 55.1%. At mouse liver COMT (3 mg/kg), the “COMT activity (% of control)” value is 59 % of control and 59.9 % of control.
In the case of `Cc1nc(-c2cc(O)c(O)c([N+](=O)[O-])c2)no1` [Compound 2, 5-(5-Methyl-[1,2,4]oxadiazol-3-yl)-3-nitro-benzene-1,2-diol], the “% of viable cells” value in data set [1] was 92.5%. Further, the “COMT activity (% of control)” value at mouse liver COMT (3 mg/kg) is 79 % of control and 78.8 % of control.
On to `Cc1nnc(-c2cc(O)c(O)c([N+](=O)[O-])c2)o1` [Compound 3, 5-(5-Methyl-[1,3,4]oxadiazol-2-yl)-3-nitro-benzene-1,2-diol], for which the “% of viable cells” value in data set [1] is 100.5%. Also, at mouse liver COMT (3 mg/kg), the “COMT activity (% of control)” value is 64 % of control and 63.6 % of control.
For the molecule `O=[N+]([O-])c1cc(-c2nc(-c3cc[n+]([O-])cc3)no2)cc(O)c1O` [Compound 4, 3-Nitro-5-[3-(1-oxy-pyridin-4-yl)-[1,2,4]oxadiazol-5-yl]-benzene-1,2-diol], in data set [1], the “% of viable cells” value was 98.3%. The “COMT activity (% of control)” value on mouse liver COMT is recorded as 42.1 % of control.
Consider `O=[N+]([O-])c1cc(-c2nc(-c3ccc[n+]([O-])c3)no2)cc(O)c1O` [Compound 5, 3-Nitro-5-[3-(1-oxy-pyridin-3-yl)-[1,2,4]oxadiazol-5-yl]-benzene-1,2-diol], for which the “% of viable cells” value in data set [1] was 93.8%. Also, the “COMT activity (% of control)” value at mouse liver COMT is reported as 58.4 % of control.
`O=[N+]([O-])c1cc(-c2nc(-c3cccc[n+]3[O-])no2)cc(O)c1O` [Compound 6, 3-Nitro-5-[3-(1-oxy-pyridin-2-yl)-[1,2,4]oxadiazol-5-yl]-benzene-1,2-diol]: in data set [1], the “% of viable cells” value was 107.1%. Moreover, the “COMT activity (% of control)” value on mouse liver COMT is reported as 101.0 % of control.
On to `O=[N+]([O-])c1cc(-c2nc(-c3c(Cl)c[n+]([O-])cc3Cl)no2)cc(O)c1O` [Compound 7, 5-[3-(3,5-Dichloro-1-oxy-pyridin-4-yl)-[1,2,4]oxadiazol-5-yl]-3-nitro-benzene-1,2-diol], for which, in data set [1], the “% of viable cells” value is 56.9%. Also, the “COMT activity (% of control)” value at mouse liver COMT is 14.2 % of control.
In the case of `O=[N+]([O-])c1cc(-c2nc(-c3cc[n+]([O-])c(Cl)c3)no2)cc(O)c1O` [Compound 8, 5-[3-(2-Chloro-1-oxy-pyridin-4-yl)-[1,2,4]oxadiazol-5-yl]-3-nitro-benzene-1,2-diol], the “% of viable cells” value in data set [1] is given as 106.7%. At mouse liver COMT, the “COMT activity (% of control)” value is recorded as 55.4 % of control.
With `O=[N+]([O-])c1cc(-c2nc(-c3cc[n+]([O-])c(-c4ccccc4)c3)no2)cc(O)c1O` [Compound 9, 3-Nitro-5-[3-(1-oxy-2-phenyl-pyridin-4-yl)-[1,2,4]oxadiazol-5-yl]-benzene-1,2-diol], in data set [1], the “% of viable cells” value was 79.7%. Also, the “COMT activity (% of control)” value on mouse liver COMT is reported as 80.6 % of control.
Consider `O=[N+]([O-])c1cc(-c2nc(-c3cc[n+]([O-])c(-c4ccoc4)c3)no2)cc(O)c1O` [Compound 10, 5-[3-(2-Furan-3-yl-1-oxy-pyridine-4-yl)-[1,2,4]oxadiazol-5-yl]-3-nitro-benzene-1,2-diol], for which the “% of viable cells” value in data set [1] was 69.3%. The “COMT activity (% of control)” value on mouse liver COMT is reported as 95.2 % of control.
In the same order, the values of `O=[N+]([O-])c1cc(-c2nc(-c3cc[n+]([O-])c(N4CCOCC4)c3)no2)cc(O)c1O` [Compound 11, 5-[3-(2-Morpholin-4-yl-1-oxy-pyridine-4-yl)-[1,2,4]oxadiazol-5-yl]-3-nitro-benzene-1,2-diol] are 105.7% and 63.9 % of control.
The matching figures for `O=[N+]([O-])c1cc(-c2nc(-c3cc[n+]([O-])c(N4CCSCC4)c3)no2)cc(O)c1O` [Compound 12, 3-Nitro-5-[3-(1-oxy-2-thiomorpholin-4-yl-pyridin-4-yl)-[1,2,4]oxadiazol-5-yl]-benzene-1,2-diol]: 91.7% and 92.9 % of control.
With `O=[N+]([O-])c1cc(-c2nc(-c3cc[n+]([O-])c(Sc4ccccc4)c3)no2)cc(O)c1O` [Compound 13, 3-Nitro-5-[3-(1-oxy-2-phenylsulfanyl-pyridin-4-yl)-[1,2,4]oxadiazol-5-yl]-benzene-1,2-diol], at mouse liver COMT, the “COMT activity (% of control)” value is listed as 102.3 % of control.
Regarding `O=[N+]([O-])c1cc(-c2nc(-c3cc[n+]([O-])c(Oc4ccccc4)c3)no2)cc(O)c1O` [Compound 14, 3-Nitro-5-[3-(1-oxy-2-phenoxy-pyridin-4-yl)-[1,2,4]oxadiazol-5-yl]-benzene-1,2-diol], the “% of viable cells” value in data set [1] was 83.5%. In addition, the “COMT activity (% of control)” value at mouse liver COMT was 76.8 % of control.
The matching figures for `Cc1cc(-c2noc(-c3cc(O)c(O)c([N+](=O)[O-])c3)n2)cc(C)[n+]1[O-]` [Compound 15, 5-[3-(2,6-Dimethyl-1-oxy-pyridine-4-yl)-[1,2,4]oxadiazol-5-yl]-3-nitro-benzene-1,2-diol]: 97.1% and 79.2 % of control.
Regarding `CS(=O)(=O)c1cc(-c2noc(-c3cc(O)c(O)c([N+](=O)[O-])c3)n2)cc[n+]1[O-]` [Compound 16, 5-[3-(2-Methanesulfonyl-1-oxy-pyridine-4-yl)-[1,2,4]oxadiazol-5-yl]-3-nitro-benzene-1,2-diol], the “% of viable cells” value in data set [1] is on record as 64.6%. In addition, the “COMT activity (% of control)” value at mouse liver COMT was 85.9 % of control.
`CSc1cc(-c2noc(-c3cc(O)c(O)c([N+](=O)[O-])c3)n2)cc[n+]1[O-]` [Compound 17, 5-[3-(2-Methylsulfanyl-1-oxy-pyridine-4-yl)-[1,2,4]oxadiazol-5-yl]-3-nitro-benzene-1,2-diol]: the “% of viable cells” value in data set [1] is listed as 96.0%. Besides, the “COMT activity (% of control)” value on mouse liver COMT was 89.9 % of control.
For `O=[N+]([O-])c1cc(-c2nc(-c3cc(Br)c[n+]([O-])c3)no2)cc(O)c1O` [Compound 19, 5-[3-(5-Bromo-1-oxy-pyridin-3-yl)-[1,2,4]oxadiazol-5-yl]-3-nitro-benzene-1,2-diol], the “% of viable cells” value in data set [1] is recorded as 100.1%. The “COMT activity (% of control)” value at mouse liver COMT is 45.2 % of control.
Turning to `Cc1ccc(-c2noc(-c3cc(O)c(O)c([N+](=O)[O-])c3)n2)c[n+]1[O-]` [Compound 20, 5-[3-(6-Methyl-1-oxy-pyridin-3-yl)-[1,2,4]oxadiazol-5-yl]-3-nitro-benzene-1,2-diol], on mouse liver COMT, the “COMT activity (% of control)” value is recorded as 56.6 % of control.
For the molecule `Cc1cc[n+]([O-])cc1-c1noc(-c2cc(O)c(O)c([N+](=O)[O-])c2)n1` [Compound 21, 5-[3-(4-Methyl-1-oxy-pyridin-3-yl)-[1,2,4]oxadiazol-5-yl]-3-nitro-benzene-1,2-diol], the “COMT activity (% of control)” value at mouse liver COMT is 95.6 % of control.
For `O=[N+]([O-])c1cc(-c2nc(-c3cc(-c4ccccc4)c[n+]([O-])c3)no2)cc(O)c1O` [Compound 22, 3-Nitro-5-[3-(1-oxy-5-phenyl-pyridin-3-yl)-[1,2,4]oxadiazol-5-yl]-benzene-1,2-diol], the “COMT activity (% of control)” value at mouse liver COMT was 111.6 % of control.
As to `O=[N+]([O-])c1cc(-c2nc(-c3ccc(Cl)[n+]([O-])c3)no2)cc(O)c1O` [Compound 23, 5-[3-(6-Chloro-1-oxy-pyridin-3-yl)-[1,2,4]oxadiazol-5-yl]-3-nitro-benzene-1,2-diol], the “% of viable cells” value in data set [1] is given as 41.1%. Besides, on mouse liver COMT, the “COMT activity (% of control)” value is listed as 43 % of control.
`O=[N+]([O-])c1cc(-c2nc(-c3ccc[n+]([O-])c3Cl)no2)cc(O)c1O` [Compound 24, 5-[3-(2-Chloro-1-oxy-pyridin-3-yl)-[1,2,4]oxadiazol-5-yl]-3-nitro-benzene-1,2-diol]: the “% of viable cells” value in data set [1] is listed as 93.7%. Further, on mouse liver COMT, the “COMT activity (% of control)” value was 71.8 % of control.
For the molecule `Cc1ccc(-c2noc(-c3cc(O)c(O)c([N+](=O)[O-])c3)n2)c(Cl)[n+]1[O-]` [Compound 25, 5-[3-(2-Chloro-6-methyl-1-oxy-pyridin-3-yl)-[1,2,4]oxadiazol-5-yl]-3-nitro-benzene-1,2-diol], the “% of viable cells” value in data set [1] is recorded as 100.2%. The “COMT activity (% of control)” value at mouse liver COMT is recorded as 23.1 % of control.
Consider `O=[N+]([O-])c1cc(-c2nc(-c3ccc[n+]([O-])c3N3CCOCC3)no2)cc(O)c1O` [Compound 26, 5-[3-(2-Morpholin-4-yl-1-oxy-pyridin-3-yl)-[1,2,4]oxadiazol-5-yl]-3-nitro-benzene-1,2-diol], for which the “% of viable cells” value in data set [1] is 110.9%. In addition, the “COMT activity (% of control)” value on mouse liver COMT is on record as 35.5 % of control.
For the molecule `O=[N+]([O-])c1cc(-c2nc(-c3cc[n+]([O-])c4ccccc34)no2)cc(O)c1O` [Compound 34, 3-Nitro-5-[3-(1-oxy-quinolin-4-yl)-[1,2,4]oxadiazol-5-yl]-benzene-1,2-diol], the “COMT activity (% of control)” value on mouse liver COMT is listed as 88.6 % of control.
The same measure, in the same setting: for `O=[N+]([O-])c1cc(-c2nc(-c3cc4ccccc4[n+]([O-])c3)no2)cc(O)c1O` [Compound 35, 3-Nitro-5-[3-(1-oxy-quinolin-3-yl)-[1,2,4]oxadiazol-5-yl]-benzene-1,2-diol] the value was 81.2 % of control; for `O=[N+]([O-])c1cc(-c2nc(COc3ccc(C(F)(F)F)c[n+]3[O-])no2)cc(O)c1O` [Compound 44, 3-Nitro-5-[3-(1′-oxy-5-trifluoromethyl-pyridin-2-yloxymethyl)-[1,2,4]oxadiazol-5-yl]-benzene-1,2-diol], 24.5 % of control.
